Experimental data as given in article PMC6375636, “Monotherapy with a low-dose lipopeptide HIV fusion inhibitor maintains long-term viral suppression in rhesus macaques” (PLoS Pathogens, 2019).
Read-outs that look alike come from different tables or passages of the source. Peptide text beside a SMILES is read from it. * marks the point of attachment. Stearoyl = CCCCCCCCCCCCCCCCCC(=O)*; Palmitoyl = CCCCCCCCCCCCCCCC(=O)*

Experiments:
Type in all cases: cell-based
[1] = test system: HIV-1 pseudovirus, primary Env 246_F3_C10_2; conditions: Env 246_F3_C10_2, subtype A/C; mean ± SD of 3 assays in triplicate
Method in brief: (§1)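 Steps: transfect HEK293T to produce virus, harvesting supernatants at 48 h; titrate on TZM-bl; mix 100 TCID50 with inhibitor in threefold dilutions for 1 h at room temperature; infect TZM-bl cells, 10^4 per well; after 48 h at 37°C, measure luciferase.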

[2] = test system: HIV-1 pseudovirus, primary Env JRFL; conditions: subtype B, mean ± SD of 3 assays in triplicate
Method in brief: as §1

HIV-1 NL4-3 = conditions: Table 2; NL4-3, subtype B, X4; mean ± SD of 3 assays in triplicate
Method in brief: as §1

[3] = test system: HIV-1 pseudovirus, primary Env TRO.11; conditions: Env TRO.11, subtype B; mean ± SD of 3 assays in triplicate
Method in brief: as §1

HIV-1 R3A = conditions: Table 2, subtype B, R5X4, mean ± SD of 3 assays in triplicate
Method in brief: as §1

HIV-1 CH040.c/2625 = conditions: Table 2; CH040.c/2625, subtype B, R5; mean ± SD of 3 assays in triplicate
Method in brief: as §1

[4] = test system: HIV-1 pseudovirus, primary Env CE1176_A3; conditions: Env CE1176_A3, subtype C; mean ± SD of 3 assays in triplicate
Method in brief: as §1

[5] = test system: HIV-1 pseudovirus, primary Env SHX335.24; conditions: Env SHX335.24, subtype A/E; mean ± SD of 3 assays in triplicate
Method in brief: as §1

[6] = test system: replication-competent HIV-1 isolates; conditions: mean of the ten isolates of Table 2; read-out: Mean IC50 over the replication-competent isolates
Method in brief: as §1

[7] = test system: HIV-1 pseudovirus, primary Env CH64.20; conditions: Env CH64.20, subtype B/C; mean ± SD of 3 assays in triplicate
Method in brief: as §1

[8] = test system: HIV-1 pseudovirus, primary Env 43–22; conditions: Env 43–22, subtype B'; mean ± SD of 3 assays in triplicate
Method in brief: as §1

[9] = test system: HIV-1 pseudovirus, primary Env Du156; conditions: Env Du156, subtype C; mean ± SD of 3 assays in triplicate
Method in brief: as §1

[10] = test system: HIV-1 pseudovirus, primary Env CE703010217_B6; conditions: Env CE703010217_B6, subtype C; mean ± SD of 3 assays in triplicate
Method in brief: as §1

[11] = test system: HIV-1 pseudovirus, primary Env CH120.6; conditions: Env CH120.6, subtype B/C; mean ± SD of 3 assays in triplicate
Method in brief: as §1

[12] = test system: HIV-1 pseudovirus, primary Env SC422661.8; conditions: Env SC422661.8, subtype B; mean ± SD of 3 assays in triplicate
Method in brief: as §1

[13] = test system: HIV-1 pseudovirus, primary Env pREJO4541; conditions: Env pREJO4541, subtype B; mean ± SD of 3 assays in triplicate
Method in brief: as §1

HIV-1JRCSF = target: HIV-1JRCSF
Method in brief: as §1

[14] = test system: HIV-1 pseudovirus, primary Env X2278_C2_B6; conditions: Env X2278_C2_B6, subtype B; mean ± SD of 3 assays in triplicate
Method in brief: as §1

[15] = test system: HIV-1 pseudovirus, primary Env AC10.0.29; conditions: Env AC10.0.29, subtype B; mean ± SD of 3 assays in triplicate
Method in brief: as §1

HIV-1 WITO.c/2474 = conditions: Table 2; WITO.c/2474, subtype B, R5; mean ± SD of 3 assays in triplicate
Method in brief: as §1

[16] = test system: HIV-1 pseudovirus, primary Env X1632-S2-B10; conditions: Env X1632-S2-B10, subtype G; mean ± SD of 3 assays in triplicate
Method in brief: as §1

[17] = test system: HIV-1 pseudovirus, primary Env B04; conditions: Env B04, subtype B'; mean ± SD of 3 assays in triplicate
Method in brief: as §1

[18] = test system: HIV-1 pseudovirus, primary Env 398-F1_F6_20; conditions: Env 398-F1_F6_20, subtype A; mean ± SD of 3 assays in triplicate
Method in brief: as §1

[19] = test system: HIV-1 pseudovirus, primary Env CH070.1; conditions: Env CH070.1, subtype B/C; mean ± SD of 3 assays in triplicate
Method in brief: as §1

[20] = test system: HIV-1 pseudovirus, primary Env 92RW020; conditions: Env 92RW020, subtype A; mean ± SD of 3 assays in triplicate
Method in brief: as §1

[21] = test system: HIV-1 pseudovirus, primary Env B01; conditions: Env B01, subtype B'; mean ± SD of 3 assays in triplicate
Method in brief: as §1

[22] = Fig 1, replication-competent virus, mean ± SD of three assays in triplicate, read-out: Anti-HIV activity (IC50, pM) JRCSF infection
[23] = Table 2, JR-CSF, subtype B, R5, mean ± SD of 3 assays in triplicate, read-out: Mean IC50

SMILES | IC50 [1] [pM] | IC50 [2] [pM] | IC50 (HIV-1 NL4-3) [pM] | IC50 [3] [pM] | IC50 (HIV-1 R3A) [pM] | IC50 (HIV-1 CH040.c/2625) [pM] | IC50 [4] [pM] | IC50 [5] [pM] | IC50 [6] [pM] | IC50 [7] [pM] | IC50 [8] [pM] | IC50 [9] [pM] | IC50 [10] [pM] | IC50 [11] [pM] | IC50 [12] [pM] | IC50 [13] [pM] | IC50 (HIV-1JRCSF; [22]) [pM] | IC50 (HIV-1JRCSF; [23]) [pM] | IC50 [15] [pM] | IC50 (HIV-1 WITO.c/2474) [pM] | further results
CCCCCCCCCCCCCCCC(=O)NCCCC[C@H](NC(=O)[C@H](CCC(=O)O)NC(=O)[C@H](CC(C)C)NC(=O)[C@H](CCCCN)NC(=O)[C@H](CCCCN)NC(=O)[C@H](CC(C)C)NC(=O)[C@H](CCC(=O)O)NC(=O)[C@H](CCC(=O)O)NC(=O)[C@H](CCC(=O)O)NC(=O)[C@H](CC(N)=O)NC(=O)[C@H](CCCCN)NC(=O)[C@H](CCCCN)NC(=O)[C@H](CCC(N)=O)NC(=O)[C@H](CCC(N)=O)NC(=O)[C@H](CCC(=O)O)NC(=O)[C@H](CCC(=O)O)NC(=O)[C@H](C)NC(=O)[C@H](CCCCN)NC(=O)[C@H](CCCCN)NC(=O)[C@H](CC(C)C)NC(=O)[C@H](CC(C)C)NC(=O)[C@H](CCC(=O)O)NC(=O)[C@H](CCC(=O)O)NC(=O)[C@@H](NC(=O)[C@H](CCCCN)NC(=O)[C@H](CCC(N)=O)NC(=O)[C@H](CCC(=O)O)NC(=O)[C@H](Cc1c[nH]c2ccccc12)NC(C)=O)[C@@H](C)CC)C(N)=O [LP-52, reference compound] (Ac-WEQKIEELLKKAEEQQKKNEEELKKLEK(Palmitoyl)-NH2) | 17.5 ± 1.91 | 46.7 ± 6.96 | 4.5 ± 2.49 | 20.6 ± 2.67 | 13.6 ± 1.99 | 66.7 ± 9.1 | 11.1 ± 1.52 | 18.9 ± 0.34 | 16.9 | 9.71 ± 0.84 | 7.83 ± 0.74 | 4.66 ± 0.75 | 11.7 ± 1.37 | 19.9 ± 1.48 | 9.39 ± 1.76 | 7.22 ± 0.85 | 7.47 ± 1.9 | 8.02 ± 3.59 | 9.71 ± 0.81 | 5.29 ± 1.61 | IC50 [14]: 1.17 ± 0.22 pM; IC50 [16]: 24.5 ± 2.39 pM; IC50 [17]: 13.4 ± 0.94 pM; IC50 [18]: 9.48 ± 1.74 pM; IC50 [19]: 27.6 ± 3.33 pM; IC50 [20]: 39.3 ± 1.51 pM; IC50 [21]: 7.06 ± 1.16 pM
CCCCCCCCCCCCCCCCCC(=O)NCCCC[C@H](NC(=O)[C@H](CCC(=O)O)NC(=O)[C@H](CC(C)C)NC(=O)[C@H](CCCCN)NC(=O)[C@H](CCCCN)NC(=O)[C@H](CC(C)C)NC(=O)[C@H](CCC(=O)O)NC(=O)[C@H](CCC(=O)O)NC(=O)[C@H](CCC(=O)O)NC(=O)[C@H](CC(N)=O)NC(=O)[C@H](CCCCN)NC(=O)[C@H](CCCCN)NC(=O)[C@H](CCC(N)=O)NC(=O)[C@H](CCC(N)=O)NC(=O)[C@H](CCC(=O)O)NC(=O)[C@H](CCC(=O)O)NC(=O)[C@H](C)NC(=O)[C@H](CCCCN)NC(=O)[C@H](CCCCN)NC(=O)[C@H](CC(C)C)NC(=O)[C@H](CC(C)C)NC(=O)[C@H](CCC(=O)O)NC(=O)[C@H](CCC(=O)O)NC(=O)[C@@H](NC(=O)[C@H](CCCCN)NC(=O)[C@H](CCC(N)=O)NC(=O)[C@H](CCC(=O)O)NC(=O)[C@H](Cc1c[nH]c2ccccc12)NC(C)=O)[C@@H](C)CC)C(N)=O [LP-80] (Ac-WEQKIEELLKKAEEQQKKNEEELKKLEK(Stearoyl)-NH2) | 4.05 ± 0.47 | 10.4 ± 2.25 | 2.45 ± 0.51 | 3.92 ± 0.26 | 5.67 ± 0.85 | 22.7 ± 5.55 | 2.94 ± 0.19 | 2.83 ± 0.66 | 7.09 | 5.75 ± 0.19 | 3.24 ± 0.27 | 1.1 ± 0.35 | 5.72 ± 1.32 | 10.6 ± 1.02 | 2.55 ± 0.77 | 1.4 ± 0.61 | 2.45 | 4.02 ± 2.63 | 5.01 ± 0.93 | 3.38 ± 1.09 | IC50 [16]: 5.56 ± 0.76 pM; IC50 [17]: 3.81 ± 1.08 pM; IC50 [18]: 1.49 ± 0.26 pM; IC50 [19]: 28.5 ± 0.63 pM; IC50 [20]: 9.74 ± 0.93 pM; IC50 [21]: 3.49 ± 0.4 pM
